SMILES strings stand for the structures. Where two headings read alike, the source gives them in different places.

Test [1] concerns Pyricularia oryzae Carvara KA301. Format: in vivo.
For another test, the system named is Botrytis cinerae. As to the kind of experiment: Fungicidal activity against Cucumber Gray Mold Rot (CGM) disease. The settings on record: 50 ppm. The test is classed as in vivo.
In another test the test system is Phytophthora infestans. Format: in vivo.
In a further test the test system is Puccinia recondita. Kind of test: Fungicidal activity against Wheat Leaf Rust (WLR) disease. Format: in vivo.
The subject of a further test is Erysiphae graminis. Kind of test: Fungicidal activity against Barley Powdery Mildew (BPM) disease. The test is classed as in vivo.
In another test the test system is Rhizoctonia solani AG-1. As to the kind of experiment: Fungicidal activity against Rice Sheath Blight (RSB) disease.

Method for Rhizoctonia solani AG-1: To examine fungicidal activity of the compounds of the present invention, each of the compounds listed in Table 3 and 4 was dissolved in 10% acetone to a concentration of 250 ppm, and Tween-20 was added thereto to a concentration of 250 or 500 ppm. 50 ml of the resulting solution was sprayed on leaves of a host plant. The plant was kept at room temperature for 24 hours to let the solvent evaporate, and then, a pathogenic fungus was inoculated thereonto. The plant was held in a humidity chamber for 24 hours, transferred to an plant growth room kept at 20 to 27° C. and a relative humidity of 60 to 80% and kept to induce disease. […] This procedure was repeated twice for each test. 10% Acetone solution containing 250 ppm of Tween-20 was used as a control.
The fungicidal activity of the compound of the present invention is repressed by a control value (C.V.) calculated as; [formula]
Rhizoctonia solani AG-1 was cultured on a PDA medium (potato 200 g, dextrose 20 g, agar 20 g and distilled water 1 ? for 3 days and the agar disc(diameter 0.6 cm) was inoculated and cultured on sterilized wheat bran medium in a 1 L bottle at 26 to 28° C. for 7 days. A mycelial mass was ground using a homogenizer, inoculated uniformly on soil of a pot wherein a Nakdong rice plant having 2 or 3 leaves and an height of 5 cm grew, and kept in humidity polyvinyl chamber for 5 days to induce RSB. L.A. on a leaf sheath was measured to calculate an C.V.

As to `CNC(=O)C(=NOC)c1ccccc1CON=C(C)c1cccc(OC(F)=C(c2ccc(C)cc2)C(F)(F)F)c1` [Compound 192], the “Fungicidal Activities RCV (C.V.)” value in test [1] (2 ppm) and in test [1] (50 ppm) was 100% in each case. The “Fungicidal Activities CGM (C.V.)” value with Botrytis cinerae stood at 75%. Moreover, the entries for the “Fungicidal Activities TLB (C.V.)” value in the test with Phytophthora infestans (2 ppm) and in the test with Phytophthora infestans (50 ppm) were 37% and 40%, respectively. In addition, the “Fungicidal Activities WLR (C.V.)” value in the test with Puccinia recondita (2 ppm) stood at 98%; in the test on Puccinia recondita (50 ppm) it was 100%. In addition, the “Fungicidal Activities BPM (C.V.)” value in the test on Erysiphae graminis (2 ppm) and with Erysiphae graminis (50 ppm) was 100% throughout. Moreover, the “Fungicidal Activities RSB (C.V.)” value in the test on Rhizoctonia solani AG-1 (2 ppm) is reported as 40%; in the test on Rhizoctonia solani AG-1 (50 ppm) it was 100%.
For `CNC(=O)C(=NOC)c1ccccc1CON=C(C)c1cccc(OC(F)=C(c2ccc(C)c(C)c2)C(F)(F)F)c1` [Compound 193], the “Fungicidal Activities RCV (C.V.)” value in test [1] (2 ppm) came out at 93%; in test [1] (50 ppm), 96%. For the same compound, the “Fungicidal Activities CGM (C.V.)” value in the test with Botrytis cinerae is 75%. The “Fungicidal Activities TLB (C.V.)” value was found to be 12% in the test on Phytophthora infestans (2 ppm) and 40% with Phytophthora infestans (50 ppm). Moreover, the “Fungicidal Activities WLR (C.V.)” value amounted to 98% in the test on Puccinia recondita (2 ppm) and 100% in the test with Puccinia recondita (50 ppm). The “Fungicidal Activities BPM (C.V.)” value in the test with Erysiphae graminis (2 ppm) is on record as 90%; with Erysiphae graminis (50 ppm), 100%. Also, the “Fungicidal Activities RSB (C.V.)” value with Rhizoctonia solani AG-1 (2 ppm) is given as 30%; in the test on Rhizoctonia solani AG-1 (50 ppm), 80%.
`CNC(=O)C(=NOC)c1ccccc1CON=C(C)c1cccc(OC(F)=C(c2cc(C)cc(C)c2)C(F)(F)F)c1` [Compound 194]: the “Fungicidal Activities RCV (C.V.)” value in test [1] (2 ppm) is 95%; in test [1] (50 ppm), 100%. The “Fungicidal Activities CGM (C.V.)” value in the test on Botrytis cinerae was 16%. In addition, the “Fungicidal Activities TLB (C.V.)” value with Phytophthora infestans (50 ppm) is 0%. For the same compound, the figures for the “Fungicidal Activities WLR (C.V.)” value with Puccinia recondita (2 ppm) and with Puccinia recondita (50 ppm) were 20% and 98%, respectively. In addition, the figures for the “Fungicidal Activities BPM (C.V.)” value with Erysiphae graminis (2 ppm) and in the test on Erysiphae graminis (50 ppm) were 0% and 98%, respectively. In the test with Rhizoctonia solani AG-1 (50 ppm), the “Fungicidal Activities RSB (C.V.)” value turned out to be 64%.
In the case of `CCc1ccc(C(=C(F)Oc2cccc(C(C)=NOCc3ccccc3C(=NOC)C(=O)NC)c2)C(F)(F)F)cc1` [Compound 195], the entries for the “Fungicidal Activities RCV (C.V.)” value in test [1] (2 ppm) and in test [1] (50 ppm) were 100% and 96%, respectively. For the same compound, the “Fungicidal Activities CGM (C.V.)” value in the test on Botrytis cinerae is recorded as 82%. The “Fungicidal Activities TLB (C.V.)” value with Phytophthora infestans (2 ppm) was 25%; in the test with Phytophthora infestans (50 ppm) it was 50%. Further, the “Fungicidal Activities WLR (C.V.)” value in the test on Puccinia recondita (2 ppm) came to 98%; in the test on Puccinia recondita (50 ppm), 100%. In addition, the results for the “Fungicidal Activities BPM (C.V.)” value with Erysiphae graminis (2 ppm) and in the test with Erysiphae graminis (50 ppm) were 99% and 100%, respectively. Also, the “Fungicidal Activities RSB (C.V.)” value is recorded as 25% with Rhizoctonia solani AG-1 (2 ppm) and 80% with Rhizoctonia solani AG-1 (50 ppm).
As for `CNC(=O)C(=NOC)c1ccccc1CON=C(C)c1cccc(OC(F)=C(c2cccc(OC)c2)C(F)(F)F)c1` [Compound 197], the “Fungicidal Activities RCV (C.V.)” value in test [1] (2 ppm) and in test [1] (50 ppm) was 100% in each case. In addition, the “Fungicidal Activities CGM (C.V.)” value in the test with Botrytis cinerae is listed as 85%. Moreover, the “Fungicidal Activities TLB (C.V.)” value in the test on Phytophthora infestans (2 ppm) turned out to be 0%; in the test on Phytophthora infestans (50 ppm) it was 50%. Moreover, the entries for the “Fungicidal Activities WLR (C.V.)” value in the test with Puccinia recondita (2 ppm) and with Puccinia recondita (50 ppm) were 98% and 100%, respectively. Moreover, the “Fungicidal Activities BPM (C.V.)” value in the test with Erysiphae graminis (2 ppm) and in the test with Erysiphae graminis (50 ppm) was 100% in each case. The “Fungicidal Activities RSB (C.V.)” value was determined as 35% with Rhizoctonia solani AG-1 (2 ppm) and 80% in the test on Rhizoctonia solani AG-1 (50 ppm).
As for `CNC(=O)C(=NOC)c1ccccc1CON=C(C)c1cccc(OC(F)=C(c2ccc(OC)cc2)C(F)(F)F)c1` [Compound 198], the “Fungicidal Activities RCV (C.V.)” value in test [1] (2 ppm) was 95%; in test [1] (50 ppm) it was 100%. The “Fungicidal Activities CGM (C.V.)” value in the test with Botrytis cinerae came to 16%. The “Fungicidal Activities TLB (C.V.)” value in the test on Phytophthora infestans (50 ppm) stood at 0%. Besides, the “Fungicidal Activities WLR (C.V.)” value with Puccinia recondita (2 ppm) is recorded as 53%; in the test with Puccinia recondita (50 ppm) it was 100%. Further, the “Fungicidal Activities BPM (C.V.)” value turned out to be 41% in the test on Erysiphae graminis (2 ppm) and 100% in the test with Erysiphae graminis (50 ppm). Further, the “Fungicidal Activities RSB (C.V.)” value in the test with Rhizoctonia solani AG-1 (50 ppm) is 58%.
Take `CNC(=O)C(=NOC)c1ccccc1CON=C(C)c1cccc(OC(F)=C(c2ccc(F)cc2)C(F)(F)F)c1` [Compound 199]: the “Fungicidal Activities RCV (C.V.)” value in test [1] (2 ppm) and in test [1] (50 ppm) was 100% each time. Also, the “Fungicidal Activities CGM (C.V.)” value with Botrytis cinerae was found to be 80%. Also, the “Fungicidal Activities TLB (C.V.)” value was found to be 12% in the test with Phytophthora infestans (2 ppm) and 60% in the test on Phytophthora infestans (50 ppm). Besides, the “Fungicidal Activities WLR (C.V.)” value in the test with Puccinia recondita (2 ppm) was found to be 99%; in the test with Puccinia recondita (50 ppm), 100%. Besides, the “Fungicidal Activities BPM (C.V.)” value in the test with Erysiphae graminis (2 ppm) and in the test with Erysiphae graminis (50 ppm) was 100% throughout. For the same compound, the “Fungicidal Activities RSB (C.V.)” value in the test on Rhizoctonia solani AG-1 (2 ppm) was found to be 35%; in the test on Rhizoctonia solani AG-1 (50 ppm) it was 100%.
Turning to `CNC(=O)C(=NOC)c1ccccc1CON=C(C)c1cccc(OC(F)=C(c2cccc(C(F)(F)F)c2)C(F)(F)F)c1` [Compound 200], the results for the “Fungicidal Activities RCV (C.V.)” value in test [1] (2 ppm) and in test [1] (50 ppm) were 95% and 96%, respectively. The “Fungicidal Activities CGM (C.V.)” value in the test with Botrytis cinerae was 81%. The “Fungicidal Activities TLB (C.V.)” value was found to be 12% with Phytophthora infestans (2 ppm) and 50% in the test on Phytophthora infestans (50 ppm). In addition, the results for the “Fungicidal Activities WLR (C.V.)” value in the test with Puccinia recondita (2 ppm) and with Puccinia recondita (50 ppm) were 93% and 100%, respectively. Also, the results for the “Fungicidal Activities BPM (C.V.)” value in the test on Erysiphae graminis (2 ppm) and with Erysiphae graminis (50 ppm) were 99% and 100%, respectively. Also, the “Fungicidal Activities RSB (C.V.)” value with Rhizoctonia solani AG-1 (2 ppm) is recorded as 15%; in the test with Rhizoctonia solani AG-1 (50 ppm), 85%.
`CNC(=O)C(=NOC)c1ccccc1CON=C(C)c1cccc(OC(F)=C(c2cccc(Cl)c2)C(F)(F)F)c1` [Compound 201]: the “Fungicidal Activities RCV (C.V.)” value is given as 98% in test [1] (2 ppm) and 97% in test [1] (50 ppm). In addition, the “Fungicidal Activities CGM (C.V.)” value with Botrytis cinerae is given as 85%. Also, the “Fungicidal Activities TLB (C.V.)” value in the test with Phytophthora infestans (2 ppm) worked out at 25%; in the test on Phytophthora infestans (50 ppm), 50%. For the same compound, the results for the “Fungicidal Activities WLR (C.V.)” value with Puccinia recondita (2 ppm) and in the test on Puccinia recondita (50 ppm) were 97% and 100%, respectively. In addition, the “Fungicidal Activities BPM (C.V.)” value with Erysiphae graminis (2 ppm) and in the test with Erysiphae graminis (50 ppm) was 100% each time. Also, the figures for the “Fungicidal Activities RSB (C.V.)” value in the test on Rhizoctonia solani AG-1 (2 ppm) and in the test with Rhizoctonia solani AG-1 (50 ppm) were 20% and 85%, respectively.
Regarding `CON=C(C(=O)OC)c1ccccc1CON=C(c1cccc(OC(F)=C(c2ccccc2)C(F)(F)F)c1)C(F)(F)F` [Compound 221], in test [1] (50 ppm), the “Fungicidal Activities RCV (C.V.)” value was determined as 41%. In the test on Botrytis cinerae, the “Fungicidal Activities CGM (C.V.)” value was determined as 0%. The “Fungicidal Activities TLB (C.V.)” value in the test on Phytophthora infestans (50 ppm) was determined as 0%. In addition, the “Fungicidal Activities WLR (C.V.)” value in the test on Puccinia recondita (10 ppm) was 91%; in the test with Puccinia recondita (50 ppm), 100%. Further, the results for the “Fungicidal Activities BPM (C.V.)” value in the test on Erysiphae graminis (10 ppm) and in the test with Erysiphae graminis (50 ppm) were 96% and 100%, respectively. In addition, the “Fungicidal Activities RSB (C.V.)” value in the test with Rhizoctonia solani AG-1 (50 ppm) was 30%.
